Results taken from patent US10183021B2, “sGC stimulators” (Ironwood Pharmaceuticals, Inc., priority 2013, dated 2019).

Columns and labels:
Sprague-Dawley rats = assay: Blood pressure change in Sprague-Dawley rats (Example 4); assay type: in vivo, rat; conditions: conscious male Sprague-Dawley rats, PO, 10 mg/kg
Description: Male rats (250-350 g body weight, supplied by Harlan Laboratories) were anesthetized with ketamine/xylazine and a heparinized saline fluid filled catheter implanted into the right femoral artery. The catheter was exteriorized between the scapula, capped, and the animal allowed to recover for at least 7 days post surgery prior to any compound testing. Prior to testing animals were maintained on normal diet, with free access to drinking water, under a 12 hour light-dark cycle.
On the day of experimentation, under inhaled isoflurane anesthesia, the catheter was uncapped and connected to a tether (Instech Labs) and pressure transducer (Harvard Apparatus). Blood pressure and heart rate were subsequently captured and analyzed with a dedicated data capture system (PowerLab, ADInstruments). Data sampling rates were set at 1 cycle per second. Once connected, each rat was allowed to recover from anesthesia and baseline blood pressure and heart rate levels were established in these conscious, freely-moving animals. Once baseline was established either vehicle (0.5% methylcellulose or 100% PEG400) or test article was administered orally (PO, 10 mg/kg) and the effects on blood pressure and heart rate monitored for up to 24 hours.
Data are reported as hourly averages and changes in blood pressure are calculated from subtracting individual baseline on an hourly basis.

[1] = biological target: T1, soluble guanylate cyclase (sGC) (Homo sapiens (Human), UniProt Q02108+Q02153); assay: sGC-HEK-cGMP assay with SNP incubation, LC/MS detection (Example 2A); assay type: cell-based; conditions: HEK293 cells, 10 μM SNP, LC/MS detection; for Emax: 100% = BAY 41-2272 at 10 μM, read-out: HEK assay Emax - unconstrained (%)
T1 sequence (Q02153 whole entry): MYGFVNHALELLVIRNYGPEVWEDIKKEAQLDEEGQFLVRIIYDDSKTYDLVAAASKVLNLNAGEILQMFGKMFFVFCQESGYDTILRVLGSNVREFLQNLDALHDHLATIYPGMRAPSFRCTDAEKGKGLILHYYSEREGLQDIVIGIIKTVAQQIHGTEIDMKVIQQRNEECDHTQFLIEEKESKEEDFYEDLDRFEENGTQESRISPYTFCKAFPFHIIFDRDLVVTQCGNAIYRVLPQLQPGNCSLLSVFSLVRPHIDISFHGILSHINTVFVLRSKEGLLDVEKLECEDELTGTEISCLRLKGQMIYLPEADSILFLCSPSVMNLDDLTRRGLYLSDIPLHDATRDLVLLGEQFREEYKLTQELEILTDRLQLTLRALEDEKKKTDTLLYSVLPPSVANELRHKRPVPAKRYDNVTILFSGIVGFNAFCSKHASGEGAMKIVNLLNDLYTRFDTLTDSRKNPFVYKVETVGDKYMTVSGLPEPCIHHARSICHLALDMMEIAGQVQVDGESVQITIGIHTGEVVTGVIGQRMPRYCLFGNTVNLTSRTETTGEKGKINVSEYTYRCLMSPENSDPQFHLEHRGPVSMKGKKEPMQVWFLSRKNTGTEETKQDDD
T1 sequence (Q02108 whole entry): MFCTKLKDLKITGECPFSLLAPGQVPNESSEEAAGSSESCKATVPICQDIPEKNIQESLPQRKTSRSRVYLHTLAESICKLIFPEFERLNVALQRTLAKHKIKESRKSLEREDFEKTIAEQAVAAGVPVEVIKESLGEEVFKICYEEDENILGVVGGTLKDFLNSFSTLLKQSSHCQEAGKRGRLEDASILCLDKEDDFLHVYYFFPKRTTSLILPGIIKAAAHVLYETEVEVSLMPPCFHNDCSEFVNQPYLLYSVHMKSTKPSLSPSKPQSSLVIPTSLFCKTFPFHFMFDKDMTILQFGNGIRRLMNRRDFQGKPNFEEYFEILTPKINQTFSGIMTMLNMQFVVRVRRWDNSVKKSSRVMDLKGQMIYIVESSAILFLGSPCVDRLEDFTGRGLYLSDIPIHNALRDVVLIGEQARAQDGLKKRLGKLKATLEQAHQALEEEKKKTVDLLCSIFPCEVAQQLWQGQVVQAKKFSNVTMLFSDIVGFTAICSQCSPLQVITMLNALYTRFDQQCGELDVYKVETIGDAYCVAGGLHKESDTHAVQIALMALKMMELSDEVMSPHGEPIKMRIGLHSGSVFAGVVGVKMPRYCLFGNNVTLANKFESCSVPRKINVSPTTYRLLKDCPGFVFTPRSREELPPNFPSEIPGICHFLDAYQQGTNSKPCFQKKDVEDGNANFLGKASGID
Outline: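 HEK293 cells with endogenous sGC were pretreated 15 min at 37 °C with 0.5 mM IBMX, then exposed 10 min at 37 °C to compound (added from 0.0001–30 μM solutions) plus SNP (from 10 μM solution). After 0.1 M HCl lysis, cGMP was quantified by LC/MS against a standard curve.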

[2] = biological target: T1, soluble guanylate cyclase (sGC); assay: sGC-HEK-cGMP assay, new protocol with DETA-NONOate, LC/MS detection (Example 2C); assay type: cell-based; conditions: read-out: Absolute EC50 (uM) - binned
[3] = top of curve not fitted to 100%, read-out: HEK assay EC50 - unconstrained
[4] = top of curve fitted to 100%, read-out: HEK assay EC50 - constrained

Row | Compound | Rat Mean Arterial Pressure peak change from baseline at 10 mpk (Sprague-Dawley rats) | Emax [1] [%] | EC50 [1, 3] [nM] | EC50 [2] [µM] | EC50 [1, 4] [nM]
1 | O=C(O)[C@H]1c2ccccc2CCN1c1nc(-c2cc(-c3ccon3)n(Cc3ccccc3F)n2)ncc1F [Compound I-121] | A (A = −10 < peak change from baseline at 10 mpk < 0) | 60 to 80 | 100 to 500 |  | 
2 | C[C@@H]1CCCN(c2nc(-c3cc(-c4ccon4)n(Cc4ccccc4F)n3)ncc2F)[C@@H]1C(=O)O [Compound I-330] | C (C = peak change from baseline at 10 mpk < −20) |  |  |  | 
3 | C[C@H]1CCCN(c2nc(-c3cc(-c4ccon4)n(Cc4ccccc4F)n3)ncc2F)[C@H]1C(=O)O (racemic) [Compound I-161] | B (B = −20 ≤ peak change from baseline at 10 mpk ≤ −10) |  |  |  | 
4 | CC(C)[C@H](Nc1nc(-c2cc(-c3ccon3)n(Cc3ccccc3F)n2)ncc1F)C(=O)NS(=O)(=O)C1CC1 [Compound I-258] |  | 100 to 120 | 1000 to 5000 | 0.101 to 1 | 
5 | CN(c1nc(-c2cc(-c3ccon3)n(Cc3ccccc3F)n2)ncc1F)[C@H](C(=O)O)C1CC1 [Compound I-239] |  | 60 to 80 | 1 to 100 | < 0.1 | 
6 | O=C(O)[C@H](Cc1cc2ccccc2[nH]1)Nc1nc(-c2cc(-c3ccon3)n(Cc3ccccc3F)n2)ncc1F [Compound I-81] |  |  |  | > 1 | > 10000
7 | C[C@H]1CCCN(c2nc(-c3cc(-c4ccon4)n(Cc4ccccc4F)n3)ncc2F)[C@H]1C(=O)O [Compound I-329] | B (B = −20 ≤ peak change from baseline at 10 mpk ≤ −10) |  |  |  | 
8 | O=C(O)C1(Nc2nc(-c3cc(-c4ccon4)n(Cc4ccccc4F)n3)ncc2F)CCCC1 [Compound I-138] |  |  |  | > 1 | 1000 to 5000
9 | Fc1ccccc1Cn1nc(-c2ncc(F)c(NC3CCCNC3)n2)cc1-c1ccon1 (stereo not shown) [Compound I-39] |  | 60 to 80 | 5000 to 10000 | 0.101 to 1 | 
10 | O=C(O)[C@H]1C[C@H](C(F)(F)F)CCN1c1nc(-c2cc(-c3ccon3)n(Cc3ccccc3F)n2)ncc1F (racemic) [Compound I-453] |  | 0 to 10 | 1000 to 5000 | 0.101 to 1 | 
11 | CN(Cc1nn[nH]n1)c1nc(-c2cc(-c3ccon3)n(Cc3ccccc3F)n2)ncc1F [Compound I-191] |  |  |  | < 0.1 | > 10000
12 | O=C(O)[C@H]1[C@@H](C(F)(F)F)CCCN1c1nc(-c2cc(-c3ccon3)n(Cc3ccccc3F)n2)ncc1F [Compound I-454] |  | 20 to 40 | > 10000 | < 0.1 | 
13 | COc1ccc2c(c1)CCN(c1nc(-c3cc(-c4ccon4)n(Cc4ccccc4F)n3)ncc1F)C2C(=O)O (stereo not shown) [Compound I-126] |  |  |  | < 0.1 | 500 to 1000
14 | CC[C@H]1CCCN(c2nc(-c3cc(-c4ccon4)n(Cc4ccccc4F)n3)ncc2F)[C@H]1C(=O)O [Compound I-455] |  | 80 to 100 | 1 to 100 | < 0.1 | 
15 | COC1CCCN(c2nc(-c3cc(-c4ccon4)n(Cc4ccccc4F)n3)ncc2F)C1 (stereo not shown) [Compound I-19] |  |  |  | < 0.1 | 1000 to 5000
16 | CN(c1nc(-c2cc(-c3ccon3)n(Cc3ccccc3F)n2)ncc1F)C(C(=O)O)c1ccccc1 (stereo not shown) [Compound I-142] | A (A = −10 < peak change from baseline at 10 mpk < 0) | 80 to 100 | 1 to 100 |  | 
17 | CC(C)N(CC(=O)O)c1nc(-c2cc(-c3ccon3)n(Cc3ccccc3F)n2)ncc1F [Compound I-204] |  |  |  | 0.101 to 1 | > 10000
18 | CCOC(=O)c1csc(CN(C)c2nc(-c3cc(-c4ccon4)n(Cc4ccccc4F)n3)ncc2F)n1 [Compound I-372] |  | 60 to 80 | 100 to 500 | 0.101 to 1 | 
19 | O=C(O)C1(CNc2nc(-c3cc(-c4ccon4)n(Cc4ccccc4F)n3)ncc2F)CCCC1 [Compound I-129] |  |  |  | < 0.1 | 100 to 500
20 | CN(CC1(C(=O)O)CC1)c1nc(-c2cc(-c3ccon3)n(Cc3ccccc3F)n2)ncc1F [Compound I-250] |  | 80 to 100 | 1 to 100 | < 0.1 | 
21 | O=C(O)C1c2ccc(O)cc2CCN1c1nc(-c2cc(-c3ccon3)n(Cc3ccccc3F)n2)ncc1F (stereo not shown) [Compound I-127] |  |  |  | > 1 | > 10000
22 | O=C(O)[C@@H]1CCc2ccccc2[C@@H]1Nc1nc(-c2cc(-c3ccon3)n(Cc3ccccc3F)n2)ncc1F [Compound I-369] |  | 60 to 80 | 1 to 100 | < 0.1 | 

Row | Compound | Rat Mean Arterial Pressure peak change from baseline at 10 mpk (Sprague-Dawley rats) | Emax [1] [%] | EC50 [1, 3] [nM] | EC50 [2] [µM] | EC50 [1, 4] [nM]
23 | CN(Cc1nc(C(=O)O)cn1C)c1nc(-c2cc(-c3ccon3)n(Cc3ccccc3F)n2)ncc1F [Compound I-376] |  | 100 to 120 | 5000 to 10000 | > 1 | 
24 | Fc1ccccc1Cn1nc(-c2nccc(N3CCOCC3)n2)cc1-c1ccon1 [Compound I-24] |  | 40 to 60 | 100 to 500 | < 0.1 | 
25 | O=C(O)[C@@]1(Nc2nc(-c3cc(-c4ccon4)n(Cc4ccccc4F)n3)ncc2F)CC2CC[C@H]1C2 [Compound I-114] |  | 40 to 60 | 1000 to 5000 | > 1 | 
26 | CN(Cc1nc(C(=O)O)co1)c1nc(-c2cc(-c3ccon3)n(Cc3ccccc3F)n2)ncc1F [Compound I-375] |  | 100 to 120 | 100 to 500 | > 1 | 
27 | O=C(O)[C@@H]1Cc2ccccc2[C@@H]1Nc1nc(-c2cc(-c3ccon3)n(Cc3ccccc3F)n2)ncc1F [Compound I-371] |  | 10 to 20 | > 10000 | < 0.1 | 
28 | CC(C)[C@H](Nc1nc(-c2cc(-c3ccon3)n(Cc3ccccc3F)n2)ncc1F)C(=O)O [Compound I-69, (S)-2-((5-fluoro-2-(1-(2-fluorobenzyl)-5-(isoxazol-3-yl)-1H-pyrazol-3-yl)pyrimidin-4-yl)amino)-3-methylbutanoic acid] |  | 80 to 100 | 500 to 1000 | 0.101 to 1 | 100 to 500
29 | O=C(O)[C@@H]1Cc2ccccc2N1c1nc(-c2cc(-c3ccon3)n(Cc3ccccc3F)n2)ncc1F [Compound I-90] |  | 40 to 60 | 5000 to 10000 | > 1 | 
30 | O=C(O)C1c2[nH]cnc2CCN1c1nc(-c2cc(-c3ccon3)n(Cc3ccccc3F)n2)ncc1F (stereo not shown) [Compound I-163] |  |  |  | > 1 | > 10000
31 | O=C(O)[C@@H](Cc1cc2ccccc2[nH]1)Nc1nc(-c2cc(-c3ccon3)n(Cc3ccccc3F)n2)ncc1F [Compound I-108] |  |  |  | 0.101 to 1 | 5000 to 10000
32 | CN(c1nc(-c2cc(-c3ccon3)n(Cc3ccccc3F)n2)ncc1F)[C@@H](Cc1ccccn1)C(=O)O [Compound I-257] |  |  |  | > 1 | > 10000
33 | CN(c1nc(-c2cc(-c3ccon3)n(Cc3ccccc3F)n2)ncc1F)C12CC(C(=O)O)(C1)C2 [Compound I-307] |  | 100 to 120 | 1000 to 5000 | 0.101 to 1 | 
34 | CC(C)[C@H](C(=O)O)N(C)c1nc(-c2cc(-c3ccon3)n(Cc3ccccc3F)n2)ncc1F [Compound I-219] |  | 20 to 40 | > 10000 | < 0.1 | 
35 | O=C(O)C1(O)CCN(c2nc(-c3cc(-c4ccon4)n(Cc4ccccc4F)n3)ncc2F)CC1 [Compound I-300] |  | 60 to 80 | 500 to 1000 | 0.101 to 1 | 
36 | O=C(O)CC1CCN(c2nc(-c3cc(-c4ccon4)n(Cc4ccccc4F)n3)ncc2F)CC1 [Compound I-230] |  | 40 to 60 | > 10000 | < 0.1 | 
37 | CN(CCS(=O)(=O)O)c1nc(-c2cc(-c3ccon3)n(Cc3ccccc3F)n2)ncc1F [Compound I-368] |  | 20 to 40 | 100 to 500 | > 1 | 
38 | CC(C)[C@@H](C(=O)O)N(C)c1nc(-c2cc(-c3ncco3)n(Cc3ccccc3F)n2)ncc1F [Compound I-236] |  | 100 to 120 | 100 to 500 | < 0.1 | 
39 | O=C(O)C1(F)CCN(c2nc(-c3cc(-c4ccon4)n(Cc4ccccc4F)n3)ncc2F)CC1 [Compound I-188] |  |  |  | 0.101 to 1 | 1000 to 5000
40 | O=C(O)[C@@H]1CCCC[C@H]1Nc1nc(-c2cc(-c3ccon3)n(Cc3ccccc3F)n2)ncc1F [Compound I-198] |  | 40 to 60 | 1 to 100 | < 0.1 | 
41 | CC(C)(C)OC(=O)NC1CCN(c2nc(-c3cc(-c4ccon4)n(Cc4ccccc4F)n3)ncc2F)C1 (stereo not shown) [Compound I-35] |  | 40 to 60 | 500 to 1000 | 0.101 to 1 | 
42 | Fc1ccccc1Cn1nc(-c2ncc(F)c(N3CCc4ccccc4C3)n2)cc1-c1ccon1 [Compound I-111] |  |  |  | < 0.1 | > 10000
43 | CC1CCCN1c1nc(-c2cc(-c3ccon3)n(Cc3ccccc3F)n2)ncc1F (stereo not shown) [Compound I-11] |  |  |  | 0.101 to 1 | 500 to 1000
44 | CC1C(=O)NCCN1c1nc(-c2cc(-c3ccon3)n(Cc3ccccc3F)n2)ncc1F (stereo not shown) [Compound I-54] |  |  |  | < 0.1 | 100 to 500
